Reference: patent US20240008487A1, “FUNGICIDAL COMPOSITIONS” (SYNGENTA CROP PROTECTION AG, priority 2020, published 2024)

Key:
Conditions in all cases: alone
[1] = test system: Glomerella lagenarium syn. Colletotrichum lagenarium; test: Glomerella lagenarium syn. Colletotrichum lagenarium (Anthracnose) liquid culture growth inhibition; type: cell-based
Procedure: (§1) Conidia of the fungus from cryogenic storage were directly mixed into nutrient broth (PDB potato dextrose broth). A DMSO solution of the test compounds was placed into a microtiter plate (96-well format) and the nutrient broth containing the fungal spores was added to it. The test plates were incubated at 24 C and the inhibition of growth was determined photometrically after 72 hrs at 620 nm.

Septoria tritici = Septoria tritici (Leaf Blotch) liquid culture growth inhibition; type: cell-based
Procedure: as §1, with “hrs.” for “hrs at 620 nm.”

Phakopsora pachyrhizi = Phakopsora pachyrhizi (Soybean Rust) on leaf disks of treated soybean plants; type: in vivo
Procedure: Whole soybean plants are treated with the recited active ingredients 4 weeks after planting. 1 day after spraying leaf disks are cut from the first trifoliate leaf. Five repetitions at each rate are conducted. The leaf disks are inoculated with Phakopsora pachyrhizi (Asian soybean rust) one day after treatment. Evaluation of the leaf disks is conducted 11 to 14 days after inoculation and the activity is derived from the relation of the treated vs untreated, infested check. The rates of the active ingredients used are given in Table as g active ingredient (a.i.)/ha.

Corynespora cassiicola = Corynespora cassiicola (Target Leaf Spot) liquid culture growth inhibition; type: cell-based
Procedure: as §1, with “3-4 days” for “72 hrs”

Septoria glycines = Septoria glycines (Brown Spot) liquid culture growth inhibition; type: cell-based
Procedure: as §1, with “visually” for “photometrically”, “hrs.” for “hrs at 620 nm.”

Botrytis cinerea = Botrytis cinerea (Gray Mould) liquid culture growth inhibition; type: cell-based
Procedure: as §1, with “hrs.” for “hrs at 620 nm.”

Sclerotinia sclerotiorum = Sclerotinia sclerotiorum (White Mold) liquid culture growth inhibition; type: cell-based
Procedure: as §1, with “Mycelial fragments” for “Conidia”, “fungus prepared” for “fungus”, “a fresh liquid culture” for “cryogenic storage”, “nm” for “nm.”

With `CNC(=O)C(F)(F)c1ccc(-c2noc(C(F)(F)F)n2)cc1` [2,2-Difluoro-N-methyl-2-[4-[5-(trifluoromethyl)-1,2,4-oxadiazol-3-yl]phenyl]acetamide] the “Observed Activity” value ([1]; 0.08 ppm) was 20%, the “Observed Activity” value (Septoria tritici; 20 ppm) was 20% and the “Observed Activity” value (Phakopsora pachyrhizi; 0.3 g/ha) was 0%. For the same compound, the “Observed Activity” value (Phakopsora pachyrhizi; 0.6 g/ha) was 4%.

For `N#Cc1ccc(Oc2ccc(C(F)(F)C(O)(Cn3nc[nH]c3=S)c3ccc(F)cc3F)nc2)cc1` (stereo not shown) [4-[[6-[2-(2,4-Difluorophenyl)-1,1-difluoro-2-hydroxy-3-(5-thioxo-4H-1,2,4-triazol-1-yl)propyl]-3-pyridyl]oxy]benzonitrile], the “Observed Activity” value (Corynespora cassiicola; 0.5 ppm) was 0%, the “Observed Activity” value (Corynespora cassiicola; 1 ppm) was 0% and the “Observed Activity” value (Corynespora cassiicola; 2 ppm) was 20%. For the same compound, the “Observed Activity” value (Septoria glycines; 1 ppm) was 50%, the “Observed Activity” value (Septoria glycines; 2 ppm) was 70% and the “Observed Activity” value (Phakopsora pachyrhizi; 30 g/ha) was 0%. The “Observed Activity” value (Phakopsora pachyrhizi; 60 g/ha) was 10%.

With `CCC(=O)Oc1c(OC)ccnc1C(=O)N[C@@H](C)C(=O)O[C@@H](C)[C@@H](C)c1ccccc1C` [Compound A-1.2, [(1S,2S)-1-methyl-2-(o-tolyl)propyl] (2S)-2-[(4-methoxy-3-propanoyloxy-pyridine-2-carbonyl)amino]propanoate] the “Observed Activity” value (Botrytis cinerea; 2 ppm) was 70%, the “Observed Activity” value (Corynespora cassiicola; 0.06 ppm) was 0% and the “Observed Activity” value (Septoria glycines; 0.03 ppm) was 20%. The “Observed Activity” value (Septoria glycines; 0.06 ppm) was 20%, the “Observed Activity” value ([1]; 0.02 ppm) was 0% and the “Observed Activity” value ([1]; 0.1 ppm) was 0%. For the same compound, the “Observed Activity” value ([1]; 0.2 ppm) was 0%, the “Observed Activity” value (Septoria tritici; 0.02 ppm) was 20% and the “Observed Activity” value (Septoria tritici; 0.03 ppm) was 50%. The “Observed Activity” value (Septoria tritici; 0.06 ppm) was 70%, the “Observed Activity” value (Septoria tritici; 0.1 ppm) was 70% and the “Observed Activity” value (Phakopsora pachyrhizi; 0.3 g/ha) was 18%. For the same compound, the “Observed Activity” value (Phakopsora pachyrhizi; 0.6 g/ha) was 55%, the “Observed Activity” value (Sclerotinia sclerotiorum; 0.02 ppm) was 0% and the “Observed Activity” value (Sclerotinia sclerotiorum; 0.1 ppm) was 0%. For the same compound, the “Observed Activity” value (Sclerotinia sclerotiorum; 0.2 ppm) was 0% and the “Observed Activity” value (Sclerotinia sclerotiorum; 2 ppm) was 70%.

For `O=C(Nc1ccccc1F)c1ccc(-c2noc(C(F)(F)F)n2)cc1` [N-(2-fluorophenyl)-4-[5-(trifluoromethyl)-1,2,4-oxadiazol-3-yl]benzamide], the “Observed Activity” value ([1]; 2.22 ppm) was 0%, the “Observed Activity” value ([1]; 6.66 ppm) was 0% and the “Observed Activity” value ([1]; 20 ppm) was 0%. For the same compound, the “Observed Activity” value (Septoria tritici; 2.22 ppm) was 0%, the “Observed Activity” value (Septoria tritici; 6.66 ppm) was 0% and the “Observed Activity” value (Septoria tritici; 20 ppm) was 0%. The “Observed Activity” value (Phakopsora pachyrhizi; 0.3 g/ha) was 0% and the “Observed Activity” value (Phakopsora pachyrhizi; 0.6 g/ha) was 35%.

With `CNC(=S)c1ccc(-c2noc(C(F)(F)F)n2)cc1` [N-methyl-4-[5-(trifluoromethyl)-1,2,4-oxadiazol-3-yl]benzenecarbothioamide] the “Observed Activity” value (Botrytis cinerea; 2.22 ppm) was 0%, the “Observed Activity” value (Botrytis cinerea; 6.66 ppm) was 20% and the “Observed Activity” value (Botrytis cinerea; 20 ppm) was 70%. The “Observed Activity” value ([1]; 0.08 ppm) was 70%, the “Observed Activity” value (Septoria tritici; 2.22 ppm) was 0% and the “Observed Activity” value (Septoria tritici; 6.66 ppm) was 70%. The “Observed Activity” value (Septoria tritici; 20 ppm) was 90%, the “Observed Activity” value (Phakopsora pachyrhizi; 0.3 g/ha) was 6% and the “Observed Activity” value (Phakopsora pachyrhizi; 0.6 g/ha) was 74%. For the same compound, the “Observed Activity” value (Sclerotinia sclerotiorum; 20 ppm) was 20%.

With `CCN(C)C=Nc1cc(C)c(Oc2ccccc2)cc1Cl` [N′-(2-chloro-5-methyl-4-phenoxy-phenyl)-N-ethyl-N-methyl-formamidine] the “Observed Activity” value (Septoria glycines; 0.625 ppm) was 70%, the “Observed Activity” value (Septoria tritici; 0.625 ppm) was 20% and the “Observed Activity” value (Phakopsora pachyrhizi; 1.5 g/ha) was 71%. For the same compound, the “Observed Activity” value (Phakopsora pachyrhizi; 3 g/ha) was 71%.

With `CCN(C)C=Nc1cc(C)c(Oc2ccccc2F)cc1Cl` [N′-[2-chloro-4-(2-fluorophenoxy)-5-methyl-phenyl]-N-ethyl-N-methyl-formamidine] the “Observed Activity” value (Phakopsora pachyrhizi; 1.5 g/ha) was 46% and the “Observed Activity” value (Phakopsora pachyrhizi; 3 g/ha) was 80%.
